According to patent EP0338887B1, “Phosphonoalkylpurine derivatives” (MERRELL DOW PHARMACEUTICALS INC., priority 1988, dated 1989):
Like-named read-outs stand apart in the source and are kept apart here.

T1: purine nucleoside phosphorylase (PNP) (Rattus norvegicus, UniProt P85973)
T1 construct: Rat Erythrocytes; from tissue; host or cells: rat erythrocytes
T1 sequence (P85973 1-289): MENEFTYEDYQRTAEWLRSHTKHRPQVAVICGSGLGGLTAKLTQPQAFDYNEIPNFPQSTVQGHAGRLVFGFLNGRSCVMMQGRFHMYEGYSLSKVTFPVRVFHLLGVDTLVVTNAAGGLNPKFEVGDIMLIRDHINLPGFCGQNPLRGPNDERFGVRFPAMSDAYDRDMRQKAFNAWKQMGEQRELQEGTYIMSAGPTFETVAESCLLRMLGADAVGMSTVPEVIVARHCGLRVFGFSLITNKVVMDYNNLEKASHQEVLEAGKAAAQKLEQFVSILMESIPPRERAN

T2: purine nucleoside phosphorylase (PNP) (Bos taurus, UniProt P55859)
T2 construct: Calf Spleen; from tissue; host or cells: calf spleen
T2 sequence (P55859 1-289): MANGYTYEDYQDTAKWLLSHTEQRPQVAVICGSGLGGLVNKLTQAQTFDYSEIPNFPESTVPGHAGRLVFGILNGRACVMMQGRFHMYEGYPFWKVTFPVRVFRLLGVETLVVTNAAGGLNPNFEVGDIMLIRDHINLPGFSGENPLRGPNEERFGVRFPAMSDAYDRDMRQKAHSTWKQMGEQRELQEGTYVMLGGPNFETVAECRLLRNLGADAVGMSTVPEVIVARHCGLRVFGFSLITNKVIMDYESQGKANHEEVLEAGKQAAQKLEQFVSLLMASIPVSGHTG

T3: purine nucleoside phosphorylase (PNP) (Homo sapiens, UniProt P00491)
T3 construct: Human Erythrocytes; from tissue; host or cells: human erythrocytes
T3 sequence (P00491 1-289): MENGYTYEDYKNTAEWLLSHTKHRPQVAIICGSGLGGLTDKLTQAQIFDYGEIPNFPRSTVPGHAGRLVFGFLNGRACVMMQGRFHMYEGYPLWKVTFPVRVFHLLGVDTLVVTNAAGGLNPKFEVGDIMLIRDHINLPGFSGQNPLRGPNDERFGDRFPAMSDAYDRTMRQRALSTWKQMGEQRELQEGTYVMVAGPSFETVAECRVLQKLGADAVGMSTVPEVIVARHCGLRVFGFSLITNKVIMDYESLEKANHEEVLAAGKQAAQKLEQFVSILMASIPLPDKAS

B1: purine nucleoside phosphorylase (PNP) (Bos taurus) (protein)
chain: T2 sequence (P55859 1-289)
notes: Calf Spleen; from tissue; host or cells: calf spleen
B2: purine nucleoside phosphorylase (PNP) (Rattus norvegicus) (protein)
chain: T1 sequence (P85973 1-289)
notes: Rat Erythrocytes; from tissue; host or cells: rat erythrocytes
B3: purine nucleoside phosphorylase (PNP) (Homo sapiens) (protein)
chain: T3 sequence (P00491 1-289)
notes: Human Erythrocytes; from tissue; host or cells: human erythrocytes

Legend:
Type in all cases: biochemical
[1] = biological target: T1, purine nucleoside phosphorylase (PNP); experiment: PNP inhibition, coupled xanthine oxidase method of Kalckar (rat erythrocyte PNP)
[2] = biological target: T2, purine nucleoside phosphorylase (PNP); experiment: PNP inhibition, coupled xanthine oxidase method of Kalckar (calf spleen PNP)
Experimental: (§1) Purine nucleoside phophorylase (PNP) inhibitory activity can be determined by the coupled xanthine oxidase method of Kalckar, using inosine as the substrate (H.M.Kalckar, J. Biol. Chem. 167, 429-443 (1947)). […] The Ki for representative members of the compounds of formula 1 are tabulated in table 1 and are compared to the KM values of the substrate inosine using PNP from various sources. […] The presence of 2'-deoxyguanosine (about 10 µM), a natural metabolite, appears to be important in in vitro activity.

[3] = biological target: T3, purine nucleoside phosphorylase (PNP); experiment: PNP inhibition, coupled xanthine oxidase method of Kalckar (human erythrocyte PNP)
[4] = substrate: OC[C@H]1O[C@@H](n2cnc3c(O)ncnc32)[C@H](O)[C@@H]1O; experiment: PNP inhibition, coupled xanthine oxidase method of Kalckar (calf spleen PNP); settings: other: substrate KM for comparison; pH 7.4
Experimental: as §1

[5] = substrate: OC[C@H]1O[C@@H](n2cnc3c(O)ncnc32)[C@H](O)[C@@H]1O; experiment: PNP inhibition, coupled xanthine oxidase method of Kalckar (rat erythrocyte PNP); settings: other: substrate KM for comparison; pH 7.4
[6] = substrate: OC[C@H]1O[C@@H](n2cnc3c(O)ncnc32)[C@H](O)[C@@H]1O; experiment: PNP inhibition, coupled xanthine oxidase method of Kalckar (human erythrocyte PNP); settings: other: substrate KM for comparison; pH 7.4

Molecule	Ki [1] [M]	Ki [2] [M]	Ki [3] [M]	also measured
Nc1nc2c(ncn2CCCCC(F)(F)P(=O)(O)O)c(=O)[nH]1 [9-(5-phosphono-5,5-difluoropentyl)guanine]	3.5e-08			
Nc1nc2c(ncn2CCCCCC(F)(F)P(=O)(O)O)c(=O)[nH]1 [9-(6-phosphono-6,6-difluorohexyl)guanine]	1.8e-07	3.2e-07	2.8e-07	
CCOP(=O)(O)C(F)(F)CCCCCCn1cnc2c(=O)[nH]c(N)nc21 [9-(7-phosphono-7,7-difluoroheptyl)guanine, ethyl ester]	2.8e-07			Ki ([2]; apparent dissociation constant, 1 mM inorganic phosphate, 0.1 M HEPES buffer (pH 7.4), inosine 0.05 mM to 0.15 mM as substrate, read-out: Ki (M) PNP SOURCE Calf Spleen): 3.3e-06 M; Ki ([3]; apparent dissociation constant, 1 mM inorganic phosphate, 0.1 M HEPES buffer (pH 7.4), inosine 0.05 mM to 0.15 mM as substrate, read-out: Ki (M) PNP SOURCE Human Erythrocytes): 8e-07 M
Nc1nc2c(ncn2CCCCCCC(F)(F)P(=O)(O)O)c(=O)[nH]1 [9-(7-phosphono-7,7-difluoroheptyl)guanine]	9.6e-09	1.5e-07	8e-08	
O=c1[nH]cnc2c1ncn2CCCCCCC(F)(F)P(=O)(O)O [9-(7-phosphono-7,7-difluoroheptyl)hypoxanthine]	1.6e-07	2.2e-06	1e-07	
Nc1nc(O)c2ncn(CCCCCCCP(=O)(O)O)c2n1 [9-(7-phosphono-heptyl)guanine]		1.2e-06	6.8e-07	Ki ([1]; apparent dissociation constant, 1 mM inorganic phosphate, 0.1 M HEPES buffer (pH 7.4), inosine 0.05 mM to 0.15 mM as substrate, read-out: Ki (M) PNP SOURCE Rat Erythrocytes): 7.5e-08 M
Nc1nc2c(ncn2CCCCCCCC(F)(F)P(=O)(O)O)c(=O)[nH]1 [9-(8-phosphono-8,8-difluorooctyl)guanine]	4.6e-09	6.2e-07	1.9e-07	
B1				Km [4]: 28 x 10⁻⁶ M
B2				Km [5]: 80 x 10⁻⁶ M
B3				Km [6]: 70 x 10⁻⁶ M
